The source of these data is article PMC6355826 (EBioMedicine, 2018).

In experiment [1] the target is T1, methionine adenosyltransferase 2A (MAT2A) (Homo sapiens, UniProt P31153). As to the kind of experiment: HPLC SAM synthesis assay with purified MAT2A. The class given is biochemical.
Experiment [2] deals with T1, methionine adenosyltransferase 2A (MAT2A). The experiment is described as follows: microscale thermophoresis. It counts as binding. For orientation: Microscale thermophoresis detects binding through changes in fluorescence in a small temperature gradient.

As a reminder, the Kd is the concentration at which binding is half-saturated. Read a high Kd as weaker binding.

T1 sequence (P31153 whole entry): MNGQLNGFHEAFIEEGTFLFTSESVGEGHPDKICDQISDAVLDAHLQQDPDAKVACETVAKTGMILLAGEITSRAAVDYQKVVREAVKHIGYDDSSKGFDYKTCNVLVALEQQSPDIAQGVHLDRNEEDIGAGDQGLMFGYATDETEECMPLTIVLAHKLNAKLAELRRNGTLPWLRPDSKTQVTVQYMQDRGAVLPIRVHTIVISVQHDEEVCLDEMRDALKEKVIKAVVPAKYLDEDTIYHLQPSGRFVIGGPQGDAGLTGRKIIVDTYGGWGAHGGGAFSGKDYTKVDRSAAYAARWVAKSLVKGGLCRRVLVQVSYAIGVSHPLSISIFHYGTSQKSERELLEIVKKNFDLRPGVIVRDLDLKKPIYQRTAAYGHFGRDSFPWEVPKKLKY

Take `Nc1ncnc2c1ncn2[C@@H]1O[C@H](COP(=O)(O)OP(=O)(O)OP(=O)(O)O)[C@@H](O)[C@H]1O` [ATP]: the “HPLC SAM synthesis assay with purified MAT2A” value in experiment [1] is “MAT2A was incubated with its substrates which were methionine and ATP, and SAM was formed”.

As for `CC(=O)O[C@@H]1CC[C@@]2(C)[C@@H](CC[C@]3(C)[C@@H]2C(=O)C=C2[C@@H]4[C@@H](C)[C@H](C)CC[C@]4(C)CC[C@]23C)[C@@]1(C)C(=O)O` [compound 1, AKBA], binding in experiment [2] was put at a Kd of 129 ± 28 nM.

For `CSCC[C@H](N)C(=O)O` [methionine], the “HPLC SAM synthesis assay with purified MAT2A” value in experiment [1] is “MAT2A was incubated with its substrates which were methionine and ATP, and SAM was formed”.
